Results reported in patent US9540325B2, “N1-cyclic amine-N5-substituted phenyl biguanide derivatives, methods of preparing the same and pharmaceutical composition comprising the same” (Immunomet Therapeutics, Inc., priority 2011, dated 2017).

Tests used:
[1] = Solubility in water of hydrochloride and acetate salts; assay type: physicochemical; conditions: room temperature
Protocol: The solubilities in water of the hydrochlorides prepared in Examples 26, 27, 32, 33, 48, 49, 53 and 54, and the solubilities in water of the acetates prepared in Examples 70 to 77, were compared.
The experimental conditions and methods are described, as follows.
1) 1 ml of distilled water is added to a container including 5 mg of salt at room temperature.
2) The resulting mixture is stirred for 10 minutes, and then kept at room temperature for 1 hour.
3) Undissolved residual salt is recovered and weighed.
4) The ratio of the amount of the recovered salt and the amount of the dissolved salt is calculated.
5) Operations 1) to 4) are repeatedly performed with increasing amount (i.e., 10, 15, 20, 25 and 30 mg) of salt.
The experimental procedures were performed for each of the hydrochlorides of Examples 26, 27, 32, 33, 48, 49, 53 and 54 and the acetates of Examples 70 to 77. The comparative solubilities obtained using the hydrochlorides of Examples 26, 27, 32, 33, 48, 49, 53 and 54 and the acetates of Examples 70 to 77 are listed in the following Table 1.

AMPKα = assay: Measurement of AMPK activation effect (AMPKα Thr172 phosphorylation immunoassay) in MCF7 cells; assay type: cell-based, human; conditions: 24 hours; for AMPK activation effect at 10 μM (%) / AMPK activation effect at 50 μM (%): relative to untreated cells; for AMPK activation effect AC150: concentration at which AMPK activation reached 150%
In short: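 MCF7 cells in DMEM/10% FBS were treated 24 h with derivatives at 5, 10 and 50 μM (metformin hydrochloride control, 0.05–10 mM). AMPKα Thr172 phosphorylation was measured by immunoassay on 20 μg lysate. AC150 (concentration giving 150% activation) came from concentration–response curves, with activation also reported at fixed concentrations.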

HCT116 cells = assay: Measurement of effect of inhibiting cancer cell proliferation (MTT); assay type: cell-based, human; conditions: for inhibition at 100 µM: HCT-116, 100 μM, read-out: Cell Growth Inhibition (%) at 100 μM
In short: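 HCT116 cells (~5,000/well, DMEM with 10% FBS) treated 48 h with compound at 0.39–100 μM, metformin hydrochloride control at 0.1–25 mM. Viability by MTT (3 h, formazan in DMSO, A560) relative to untreated wells; GIC50 from the viability curve, also viability at 100 μM.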

[2] = content 5 mg/1 ml distilled water
[3] = content 10 mg/1 ml distilled water
[4] = content 15 mg/1 ml distilled water
[5] = content 20 mg/1 ml distilled water
[6] = content 25 mg/1 ml distilled water
[7] = content 30 mg/1 ml distilled water

Structure (SMILES) | Solubility in water (%), hydrochloride salt [1, 2] [%] | AMPK activation effect at 10 μM (%) (AMPKα) | AMPK activation effect AC150 (AMPKα) [µM] | inhibition at 100 µM (HCT116 cells; Homo sapiens, 48 hours) [%] | GI50 (HCT116 cells; Homo sapiens, HCT-116, 48 h) [µM] | melting point [°C] | Solubility in water (%), acetate salt [1, 2] [%] | Solubility in water (%), acetate salt [1, 3] [%] | Solubility in water (%), acetate salt [1, 4] [%] | Solubility in water (%), acetate salt [1, 5] [%] | Solubility in water (%), acetate salt [1, 6] [%] | Solubility in water (%), acetate salt [1, 7] [%] | AMPK activation effect at 50 μM (%) (AMPKα) | GI50 (HCT116 cells; 48 hours) [µM]
Cl.N=C(NC(=N)N1CCCCC1)Nc1ccc(OC(F)(F)F)c(F)c1 [Example 54, N1-piperidine-N5-(3-fluoro-4-trifluoromethoxy)phenyl biguanide hydrochloride] | 20 | 400 | 0.5 | 96.4 | 4.5 | 262 to 263 | – | – | – | – | – | – | – | –
N=C(NC(=N)N1CCCC1)Nc1ccc(OC(F)(F)F)cc1 [Example 72, N1-pyrrolidine-N5-(4-trifluoromethoxy)phenyl biguanide acetate] | – | 186 | 4.6 | – | – | – | 100 | 100 | 100 | 100 | 100 | 50 | 938 | –
N=C(NC(=N)N1CCCCC1)Nc1ccc(OC(F)(F)F)cc1 [Example 73, N1-piperidine-N5-(4-trifluoromethoxy)phenyl biguanide acetate] | – | 270 | 0.3 | – | – | – | 100 | 100 | 100 | 20 | – | – | 747 | –
N=C(NC(=N)N1CCCCC1)Nc1ccc(OC(F)(F)F)c(F)c1 [Example 77, N1-piperidine-N5-(3-fluoro-4-trifluoromethoxy)phenyl biguanide acetate] | – | – | – | – | – | – | 100 | 50 | – | – | – | – | – | –
N=C(NC(=N)N1CCCCC1)Nc1ccc(C(F)(F)F)cc1 [Example 71, N1-piperidine-N5-(4-trifluoromethyl)phenyl biguanide acetate] | – | 313 | 2.3 | – | – | – | 100 | 50 | – | – | – | – | – | –
N=C(NC(=N)N1CCCC1)Nc1ccc(OC(F)(F)F)c(F)c1 [Example 76, N1-pyrrolidine-N5-(3-fluoro-4-trifluoromethoxy)phenyl biguanide acetate] | – | 341 | 1.3 | – | – | – | 100 | 100 | 70 | – | – | – | – | –
N=C(NC(=N)N1CCCC1)Nc1ccc(C(F)(F)F)c(F)c1 [Example 74, N1-pyrrolidine-N5-(3-fluoro-4-trifluoromethyl)phenyl biguanide acetate] | – | 461 | 3.4 | – | – | – | 100 | 100 | 100 | 50 | – | – | – | –
N=C(NC(=N)N1CCCCC1)Nc1ccc(C(F)(F)F)c(F)c1 [Example 75, N1-piperidine-N5-(3-fluoro-4-trifluoromethyl)phenyl biguanide acetate] | – | 710 | 2.0 | – | – | – | 70 | – | – | – | – | – | – | –
Cl.N=C(NC(=N)N1CCCCC1)Nc1ccc(Cl)c(Cl)c1 [Example 64, N1-piperidine-N5-(3,4-dichloro)phenyl biguanide hydrochloride] | – | 442 | 0.7 | 101 | 6.4 | 267 to 269 | – | – | – | – | – | – | – | –
Cl.N=C(NC(=N)N1CCCCC1)Nc1cc(Cl)cc(OC(F)(F)F)c1 [Example 65, N1-piperidine-N5-(3-chloro-5-trifluoromethoxy)phenyl biguanide hydrochloride] | – | – | 5.0 | 97.3 | 3.6 | 208 to 209 | – | – | – | – | – | – | – | –
CCc1cccc(NC(=N)NC(=N)N2CCCCC2)c1.Cl [Example 10, N1-piperidine-N5-(3-ethyl)phenyl biguanide hydrochloride] | – | 178 | 7.3 | 97.4 | 27.3 | 225 to 227 | – | – | – | – | – | – | 598 | –
Cl.N=C(NC(=N)N1CCCCC1)Nc1ccc(Cl)c(C(F)(F)F)c1 [Example 47, N1-piperidine-N5-(4-chloro-3-trifluoromethyl)phenyl biguanide hydrochloride] | – | 169 | 7.3 | 96.7 | 1.9 | 269 to 270 | – | – | – | – | – | – | – | –
Cl.N=C(NC(=N)N1CCCCC1)Nc1ccccc1 [Example 8, N1-piperidine-N5-phenyl biguanide hydrochloride] | – | – | 10.1 | 77.6 | 56.8 | 204 to 206 | – | – | – | – | – | – | 347 | –
N=C(NC(=N)N1CCCC1)Nc1ccc(C(F)(F)F)cc1 [Example 70, N1-pyrrolidine-N5-(4-trifluoromethyl)phenyl biguanide acetate] | – | 554 | 2.0 | – | – | – | 100 | 100 | 100 | 100 | 100 | 50 | – | 5.2
Cl.N=C(NC(=N)N1CCCC1)Nc1ccc(OC(F)(F)F)cc1 [Example 32, N1-pyrrolidine-N5-(4-trifluoromethoxy)phenyl biguanide hydrochloride] | 50 | 204 | 5.1 | 97.6 | 23.6 | – | – | – | – | – | – | – | 680 | –
Cl.N=C(NC(=N)N1CCCCC1)Nc1ccc(Cl)cc1Cl [Example 62, N1-piperidine-N5-(2,4-dichloro)phenyl biguanide hydrochloride] | – | 208 | 5.6 | 97.2 | 11.6 | 262 to 263 | – | – | – | – | – | – | – | –
